System: RhoBAST (RNA, aptamer) GGAACCUCCGCGAAAGCGGUGAAGGAGAGGCGCAAGGUUAACCGCCUCAGGUUCC
Assay: fluorescence titration, fixed dye, aptamer varied
Conditions: 125 mM KCl, 1 mM MgCl2; 20 mM HEPES pH 7.4, 0.05% Tween 20, 25 °C, 10 nM dye

## CN(C)S(=O)(=O)N1C(=O)c2ccccc2C12c1ccc(N3CCC3)cc1Oc1cc(N3CCC3)ccc12
  KD: 100 ± 8 nM

Reference: paper PMC10313827 (2023)
